Entries after “also recorded” stand apart in the source; their conditions may differ. Structures can show the parent of a compound that is named as a salt. Where two headings read alike, the source gives them in different places. Each block holds one compound with its values, some of them ahead of it.
Assays:
[1] = test system: SMAD2/3/4 signaling, SBE-bla HEK 293T cells; assay: SBE-bla assay, activation by native TGFR ligands; format: cell-based, human; settings: Figure 2A
[2] = test system: iPSC-derived cortical glutamatergic neurons; assay: Neurite outgrowth assay in iPSC-derived neurons; format: cell-based, human; settings: for IC50: Homo sapiens, Neuron, 24 h, read-out: IC50 of neurite outgrowth inhibition
[3] = test system: TGFβ/SMAD signaling (SMAD2/3/4 complex), SBE-bla HEK 293T cells; assay: SBE-bla antagonist assay; format: cell-based, human; settings: for SBE Antagonist Efficacy: activity %, TGFβ1 only = 0, DMSO = -100
[4] = test system: SHH pathway, Gli1-luc NIH/3T3 cells; assay: SHH-luc reporter gene assay; format: cell-based
[5] = test system: WNT pathway, TCF/LEF-luc HEK293 cells; assay: WNT-luc reporter gene assay; format: cell-based, human
[6] = test system: RAR pathway, RARE-luc C3RL4 cells; assay: RAR-luc reporter gene assay; format: cell-based; settings: 6 h
[7] = test system: TGFβ, WNT, RAR and SHH pathways; assay: Profile across developmental pathways; format: cell-based; settings: sodium dimethyldithiocarbamate at 10 μM
[8] = Homo sapiens, HEK-293T, read-out: IC50 in SBE-bla assay, primary screening

Compound: TGFβ1: native TGFR ligand, human TGFβ1
EC50 of activation of SBE-bla activity [1]: 0.11 ng/mL

Compound: Cc1nc(Nc2ncc(C(=O)Nc3c(C)cccc3Cl)s2)cc(N2CCN(CCO)CC2)n1 [dasatinib]
inhibition of neurite outgrowth, in words ([2]; 24 h treatment, Figure 5D): did not inhibit neurite outgrowth; also recorded: didn’t inhibit neurite outgrowth | IC50 [3, 8]: 260 nM

Compound: CN1C(=O)N(c2ccccc2Br)Cc2cnc(Nc3ccc4c(c3)OCC(CO)O4)nc21 (stereo not drawn) [PharmaGSID_48519]
inhibition of neurite outgrowth, in words [2]: did not inhibit neurite outgrowth; also recorded: didn’t inhibit neurite outgrowth

Compound: dibutyltin
fold less cytotoxic in SBE-bla HEK 293T cells than in NSCs (SBE-bla HEK 293T cells): 10 fold

IC50 ([6]; read-out: RAR Antagonist IC50): 15300 nM
Compound: CCN(CC)C(=S)S [Sodium diethyldithiocarbamate]
IC50 ([3]; Homo sapiens, HEK-293T, 5 h, read-out: SBE Antagonist IC50): 11500 nM | SBE Antagonist Efficacy [3]: −58.53% | IC50 ([4]; Mus musculus, NIH3T3, 24 h, read-out: SHH Antagonist IC50): 8920 nM | SHH Antagonist Efficacy ([4]; conditioned medium, 24 h): −96.63% | IC50 ([5]; Homo sapiens, HEK293, 24 h, read-out: WNT Antagonist IC50): 3690 nM | WNT Antagonist Efficacy ([5]; WNT-3a stimulated, 24 h): −74.76% | RAR Antagonist Efficacy ([6]; retinol stimulated): −113.16%

Compound: Nc1ncn([C@@H]2O[C@H](CO)[C@@H](O)[C@H]2O)c(=O)n1 [5-Azacitidine]
inhibition of neurite outgrowth, in words ([2]; 24 h treatment, Figure 5D): inhibited neurite outgrowth

Compound: CC(=O)[C@]1(O)Cc2c(O)c3c(c(O)c2[C@@H](O[C@H]2C[C@H](N)[C@H](O)[C@H](C)O2)C1)C(=O)c1ccccc1C3=O [idarubicin hydrochloride]
inhibition of neurite outgrowth, in words ([2]; 24 h treatment, Figure 5D): inhibited neurite outgrowth

Compound: TGFβ2: native TGFR ligand
EC50 of activation of SBE-bla activity [1]: 0.11 ng/mL

Compound: phenylmercuric acetate
fold less cytotoxic in SBE-bla HEK 293T cells than in NSCs (SBE-bla HEK 293T cells): 10 fold

Compound: TGFβ3: native TGFR ligand
EC50 of activation of SBE-bla activity [1]: 0.11 ng/mL

Compound: CN1CC[C@H](c2c(O)cc(O)c3c(=O)cc(-c4ccccc4Cl)oc23)[C@H](O)C1 [flavopiridol hydrochloride, reference compound]
inhibition of neurite outgrowth, in words ([2]; 24 h treatment, Figure 5D): inhibited neurite outgrowth | IC50 [3, 8]: 20 nM

Compound: CC(C)C[C@H](NC(=O)[C@H](Cc1ccccc1)NC(=O)c1cnccn1)B(O)O [bortezomib]
inhibition of neurite outgrowth, in words ([2]; 24 h treatment, Figure 5D): inhibited neurite outgrowth

Compound: C=CC(=O)Nc1cc2c(Nc3ccc(F)c(Cl)c3)ncnc2cc1OCCCN1CCOCC1 [canertinib]
inhibition of neurite outgrowth, in words ([2]; 24 h treatment, Figure 5D): inhibited neurite outgrowth

Compound: S=C(SSC(=S)N1CCCCC1)N1CCCCC1 [dicyclopentamethylenethiuram, dicyclopentamethylenethiuram disulfide]
IC50 [2]: 820 nM | IC50 ([3]; Homo sapiens, HEK-293T, read-out: IC50 in SBE-bla assay, DTC cluster k35.18): 580 nM

Compound: CN(C)C(=S)SSC(=S)N(C)C [Thiram]
IC50 [2]: 100 nM

Compound: [F][Sn]([c]1ccccc1)([c]1ccccc1)[c]1ccccc1 [triphenyltin fluoride]
fold less cytotoxic in SBE-bla HEK 293T cells than in NSCs (SBE-bla HEK 293T cells): 10 fold

Compound: CN(C)C(=S)[S-].CN(C)C(=S)[S-].[Cu+2] [copper dimethyl dithiocarbamates]
IC50 ([3]; read-out: IC50 in SBE-bla assay, DTC cluster k35.18, Figure 3B): 1620 nM

Compound: CC[C@]1(O)C[C@@H]2CN(CCc3c([nH]c4ccccc34)[C@@](C(=O)OC)(c3cc4c(cc3OC)N(C)[C@H]3[C@@](O)(C(=O)OC)[C@H](OC(C)=O)[C@]5(CC)C=CCN6CC[C@]43[C@@H]65)C2)C1 [vinblastine sulfate]
inhibition of neurite outgrowth, in words ([2]; 24 h treatment, Figure 5D): inhibited neurite outgrowth

Compound: COc1cccc2c1C(=O)c1c(O)c3c(c(O)c1C2=O)C[C@@](O)(C(=O)CO)C[C@@H]3O[C@H]1C[C@H](N2CCO[C@H](OC)C2)[C@H](O)[C@H](C)O1 [nemorubicin]
inhibition of neurite outgrowth, in words [2]: inhibited neurite outgrowth

Compound: CCN(CC)C(=S)SSC(=S)N(CC)CC [disulfiram]
IC50 [2]: 180 nM

RAR Antagonist IC50 ([6]; retinol stimulated): Inactive
Compound: CCCCN(CCCC)C(=S)[S-].[Na+] [Sodium dibutylcarbamodithioate]
SBE Antagonist IC50 ([3]; TGFβ1-induced SBE-bla activity, HEK 293T, 5 h, Tables 2 and 3): Inactive | SBE Antagonist Efficacy [3]: Inactive | SHH Antagonist Efficacy ([4]; conditioned medium, 24 h): Inactive | SHH Antagonist IC50 ([4]; conditioned medium, 24 h): Inactive | WNT Antagonist Efficacy ([5]; WNT-3a stimulated, 24 h): Inactive | WNT Antagonist IC50 ([5]; WNT-3a stimulated, 24 h): Inactive | RAR Antagonist Efficacy ([6]; retinol stimulated): Inactive | inhibition of developmental pathways, in words [7]: inactive

Source: paper PMC7341485 (Chemical research in toxicology, 2019)
